From US9206124B2, “Treatment of drug-resistant cancer with 2-aryl-2-(3-indolyl) acetohydroxamates” (New Mexico Technical Research Foundation, priority 2013, dated 2015)
Entries after “also recorded” stand apart in the source; their conditions may differ.

Experiments:
[1] = test system: MCF-7 breast adenocarcinoma cells; experiment: MTT antiproliferative assay, MCF-7; type: cell-based; conditions: Homo sapiens, MCF7, Table 2, 48 h treatment, ± SD, read-out: cell viability GI50, MCF7
Excerpt: (§1) This finding led to an exploration of the SAR analyses by synthesizing the first generation compounds 3 containing diverse substituents at different positions in the 2-aryl-2-(3-indolyl)acetohydroxamate skeleton and testing this series for in vitro growth inhibition using the MTT colorimetric assay against two cell lines, human HeLa cervical and MCF-7 breast adenocarcinomas (Table 1). It emerged from these experiments that the substitution on the benzene ring of the indole moiety (R^2≠H) was not tolerated (e.g., 3abfa and 3acfa), whereas the nitrogen could be derivatized (R^1≠H) with only a small activity drop (e.g., 3bafa vs 3aafa).
(§2) Human cancer cell lines were obtained from the American Type Culture Collection (ATCC, Manassas, Va., USA), the European Collection of Cell Culture (ECACC, Salisbury, UK) and the Deutsche Sammlung von Mikroorganismen and Zellkulturen (DSMZ, Braunschweig, Germany). Human cervical adenocarcinoma HeLa cells were cultured in DMEM supplemented with 10% fetal bovine serum (FBS). Human mammary carcinoma MCF-7 cells were cultured in RPMI supplemented with 10% FBS. The U87 cells (ATCC HTB-14) were cultured in DMEM culture medium, while the A549 cells (DSMZ ACC107) were cultured in RPMI culture medium supplemented with 10% heat-inactivated FBS. The glioblastoma multiforme Hs683 (ATCC HTB-138) and the T98G (ATCC CRL-1690) cell lines were cultivated in DMEM supplemented with 10% FBS. The Human uterine sarcoma MES-SA and MES-SA/Dx5 cells were cultured in RPMI-1640 medium supplemented with 10% FBS with MES SA/Dx5 maintained in the presence of 500 nM Doxorubicin (Sigma). SKMEL-28 cells (ATCC HTB72) and U373 glioblastoma cells (ECACC 08061901) were cultured in RPMI culture medium supplemented with 10% heat-inactivated FBS. Cell culture media were supplemented with 4 mM glutamine (Lonza code BE17-605E), 100 μg/mL gentamicin (Lonza code 17-5182), and penicillin-streptomycin (200 units/ml and 200 μg/ml) (Lonza code 17-602E). Neurosphere culture GBM 031810 was established using known methods and maintained in Neurobasal medium (Invitrogen Carlsbad, Calif.) with B27 supplement (20 ul/ml; Invitrogen), Glutamax (10 ul/ml; Invitrogen), fibroblast growth factor-2 (20 ng/ml; Peprotech, Rocky Hill, N.J., USA), epidermal growth factor (20 ng/ml; Peprotech), heparin (32 IE/ml; Sigma Aldrich, St. Louis, Mo.), and penicillin-streptomycin (1×, Invitrogen). Growth factors and heparin were renewed twice weekly. All cell lines were cultured in T25 flasks, maintained and grown at 37° C., 95% humidity, 5% CO2.
(§3) Antiproliferative properties of the synthesized compounds were evaluated by the MTT assay. All compounds were dissolved in DMSO at a concentration of either 100 mM or 50 mM prior to cell treatment. The cells were trypsinized and seeded at 4×10^3 cells per well into 96-well plates. The cells were grown for 24 h, treated with compounds at concentrations ranging from 0.001 to 100 μM and incubated for 48 h in 200 μL media. 20 μL of MTT reagent in serum free medium (5 mg/mL) was added to each well and incubated further for 2 h. Media was removed and the resulting formazan crystals were re-solubilized in 200 μL of DMSO. A490 was measured using a Molecular Devices Thermomax plate reader. The experiments were performed in quadruplicate and repeated at least twice for each compound per cell line. Cells treated with 0.1% DMSO were used as a negative control; 1 μM phenyl arsine oxide (PAO) was used as a positive control.

[2] = test system: GBM 031810 neurosphere cells; experiment: Antiproliferative effect on patient-derived GBM neurosphere culture; type: cell-based; conditions: Homo sapiens, average IC50 ± SD from three determinations, read-out: GI50 in vitro, GBM 031810 (average IC50)
Excerpt: Given the ability of the hydroxamates to overcome drug resistance a few select compounds were further evaluated against glioma cells grown in neurosphere conditions, which are known to promote the growth of stem-like cells from human glioma tissue. Indeed, the neurospheres show the ability of self-renewal by regrowing in culture from individual cells, and can differentiate into multiple neural lineages and recapitulate human gliomas on both histological and genetic levels more faithfully than serum cultured glioma cell lines when injected into the brains of mice. Because, neurosphere cells are generally resistant to radiation and chemotherapy, the micromolar to submicromolar activity of the hydroxamates against the glioma neurosphere cell cultures is noteworthy (Table 4). […] It is worthy of note, that the unmethylated MGMT promoter leading to such temozolomide resistance is found in about half of all GBM patients, who respond poorly to temozolomide chemotherapy. To date, no alternative treatment exists for this group of patients.
as §2, with “Growth factors and heparin were renewed twice weekly. All cell lines were cultured in T25 flasks, maintained and grown at 37° C., 95% humidity, 5% CO2.” left out

U87 glioblastoma cells = experiment: MTT antiproliferative assay, U87; type: cell-based, human; conditions: for GI50: Homo sapiens, 48 h treatment, MTT, ± SD, read-out: GI50 in vitro, U87
Procedure: (§4) As part of the ongoing efforts aimed at identification of compounds active against cancer cells displaying resistance to proapoptotic agents, the selected 2-aryl-2-(3-indolyl)-acetohydroxamates were evaluated for in vitro growth inhibition against a panel of additional cancer cell lines including those resistant to various proapoptotic stimuli, such as human T98G and U87 glioblastoma and human A549 non-small-cell-lung cancer (NSCLC), as well as an apoptosis-sensitive tumor model, such as human Hs683 anaplastic oligodendroglioma, used as a reference. The data reveal that for the most part these compounds retain the single-digit antiproliferatve GI50 values in this challenging cancer cell panel.
as §2, §3

[3] = test system: MES-SA uterine sarcoma cells; experiment: MTT antiproliferative assay, MES-SA; type: cell-based; conditions: Homo sapiens, 48 h treatment, ± SD, read-out: GI50 in vitro, MES-SA
Procedure: Compared with the intrinsic drug resistance, as described above for such cancers as glioblastoma and melanoma, a large variety of tumors can also develop resistance to anticancer drugs resulting in MDR as explained previously. To assess whether the hydroxamates can overcome this resistance mechanism, selected hydroxamates were tested against MDR cells (Table 4). The MDR uterine sarcoma cell line MES-SA/Dx5 was utilized for this experiment. This cell line was established from the parent uterine sarcoma MES-SA, grown in the presence of increasing concentrations of doxorubicin and known to be resistant to a number of P-gp substrates. […] In contrast, there was only a small variation in the sensitivities of the two cell lines towards the hydroxamates indicating their potential to overcome clinical multi-drug resistance.
as §2, §3

[4] = test system: HeLa cervical and MCF-7 breast adenocarcinomas; experiment: In vitro growth inhibition (MTT); type: cell-based, human; conditions: HeLa and MCF-7
Excerpt: as §1, §3

[5] = test system: Hs683 anaplastic oligodendroglioma cells; experiment: MTT antiproliferative assay, Hs683; type: cell-based; conditions: Homo sapiens, Hs 683, 48 h treatment, ± SD, apoptosis-sensitive reference, read-out: GI50 in vitro, Hs683
Procedure: as §4, §2, §3

T98G glioblastoma cells = experiment: MTT antiproliferative assay, T98G; type: cell-based; conditions: Homo sapiens, 48 h treatment, ± SD, read-out: GI50 in vitro, T98G
Procedure: as §4, §2, §3

[6] = test system: A549 non-small-cell-lung cancer cells; experiment: MTT antiproliferative assay, A549; type: cell-based, human; conditions: for GI50: Homo sapiens, A549, 48 h treatment, MTT, ± SD, read-out: GI50 in vitro, A549
Procedure: as §4, §2, §3

[7] = test system: MES-SA/Dx5 MDR uterine sarcoma cells; experiment: MTT antiproliferative assay, MDR MES-SA/Dx5; type: cell-based, human; conditions: Homo sapiens, MES-SA/Dx5; 48 h treatment, MTT, ± SD; MDR line; read-out: GI50 in vitro, MES-SA/Dx5
Procedure: Compared with the intrinsic drug resistance, as described above for such cancers as glioblastoma and melanoma, a large variety of tumors can also develop resistance to anticancer drugs resulting in MDR as explained previously. To assess whether the hydroxamates can overcome this resistance mechanism, selected hydroxamates were tested against MDR cells (Table 4). The MDR uterine sarcoma cell line MES-SA/Dx5 was utilized for this experiment. This cell line was established from the parent uterine sarcoma MES-SA, grown in the presence of increasing concentrations of doxorubicin and known to be resistant to a number of P-gp substrates.
as §2, §3
Selection of the MES-SA/Dx5 cell line was done according to W. G. Harker and B. I. Sikic, Cancer Res. 1985, p. 45, 4091. The cells were split and allowed to adhere overnight. […] The cells were maintained at this DOX concentration until their growth rate reached that of the untreated cells.

[8] = test system: HeLa cervical adenocarcinoma cells; experiment: MTT antiproliferative assay, HeLa; type: cell-based; conditions: Homo sapiens, Table 2, 48 h treatment, ± SD, read-out: cell viability GI50, HeLa
Excerpt: as §1, §2, §3

[9] = FIG. 3, increasing concentration

| Compound | GI50 [1] [µM] | IC50 [2] [µM] | GI50 (U87 glioblastoma cells) [µM] | GI50 [3] [µM] | antiproliferative potency (GI50) [4] | GI50 [5] [µM] | GI50 (T98G glioblastoma cells) [µM] | GI50 [6] [µM] | GI50 [7] [µM] | GI50 [8] [µM] | activity against cell populations resistant to proapoptotic agents, U87 (U87 glioblastoma cells; [9]) | activity against cell populations resistant to proapoptotic agents, A549 [6, 9] |
| --- | --- | --- | --- | --- | --- | --- | --- | --- | --- | --- | --- | --- |
| CC(C)c1ccc(C(C(=O)NO)c2c(-c3ccc4ccccc4c3)[nH]c3ccccc23)cc1 (centres unmarked) [Compound 3aafe] | 1.4 ± 0.1 | 3.4 ± 0.7 | 5 ± 0.5 | 1.7 ± 0.4 | single-digit micromolar; also recorded: submicromolar | 6.1 ± 1 | 8.8 ± 0.5 | 3.3 ± 0.6 | 4.9 ± 1.9 | 0.68 ± 0.04 |  |  |
| Cc1ccc(C(C(=O)NO)c2c(-c3ccc4ccccc4c3)[nH]c3ccccc23)cc1C (centres unmarked) [Compound 3aafk] | 2.5 ± 0.1 |  | 6.7 ± 1.5 | 1.8 ± 0.4 | single-digit micromolar | 4.7 ± 1 | 7.5 ± 0.8 | 2.9 ± 0.6 | 2.2 ± 0.8 | 2.7 ± 0.1 |  |  |
| CN(C)c1ccc(C(C(=O)NO)c2c(-c3ccc4ccccc4c3)[nH]c3ccccc23)cc1 (centres unmarked) [Compound 3aafp] | 1.1 | 5.6 ± 0.8 | 21.3 ± 1.6 | 0.8 ± 0.1 | single-digit micromolar; also recorded: submicromolar | 5.1 ± 0.5 | 1.9 ± 0.2 | 1.5 ± 0.3 | 1.6 ± 0.6 | 0.6 ± 0.02 | potent growth inhibitory properties against most of the cells | potent growth inhibitory properties against most of the cells |
| CCCCn1c(-c2ccc3ccccc3c2)c(C(C(=O)NO)c2ccccc2)c2ccccc21 (centres unmarked) [Compound 3cafa] | 7.8 ± 0.6 |  | 6.7 ± 0.3 | 5.9 ± 1.7 | single-digit micromolar | 10.8 ± 0.5 | 12.3 ± 0.8 | 5.7 ± 0.5 | 2.7 ± 0.3 | 5.6 ± 0.3 |  |  |
| O=C(NO)C(c1ccccc1)c1c(-c2ccc3ccccc3c2)n(Cc2ccccc2)c2ccccc12 (centres unmarked) [Compound 3eafa] | 5.5 ± 0.2 |  | 9.1 ± 0.3 | 7.1 ± 0.1 | single-digit micromolar | 11.2 ± 0.9 | 10.6 ± 0.4 | 5.8 ± 0.8 | 8.5 ± 0.9 | 5.4 ± 0.3 |  |  |
| Cn1nnc2c(C(N)=O)ncn2c1=O [Temozolomide, reference compound] |  | > 1000 |  |  |  |  |  |  |  |  |  |  |
